This note sets out measurements from ChEMBL document CHEMBL4190326, “Novel Gomisin B analogues as potential cytotoxic agents: Design, synthesis, biological evaluation and docking studies” (Eur J Med Chem, 2017).

Data set [1] is filed under the species Bos taurus. In words: Induction of bovine brain tubulin polymerization at 5 uM measured for 1 hr at 1 min interval by fluorescence assay relative to control.
For the next data set, the system named is HEK293. Kind of data set: Cytotoxicity against HEK293 cells assessed as reduction in cell viability measured after 48 hrs by SRB assay. In kind it is cell-based. The conditions noted are these: Homo sapiens, HEK293, 48 h. On the technique in general: Sulforhodamine B stains cellular protein and so reports cell mass.
The test system of data set [2] is HeLa. In words: Cell cycle arrest in human HeLa cells assessed as G2/M phase accumulation at 20 uM after 24 hrs by propidium iodide staining based flow cytometric analysis (reference value: 29.18%). In kind it is functional. For orientation: A flow cytometer gives signals particle by particle.
Data set [3] concerns HeLa. In words: Cell cycle arrest in human HeLa cells assessed as G2/M phase accumulation at 10 uM after 24 hrs by propidium iodide staining based flow cytometric analysis (reference value: 29.18%). The data set is classed as functional.
The next data set has as its system A549. In words: Cytotoxicity against human A549 cells assessed as reduction in cell viability measured after 48 hrs by SRB assay. The data set is classed as functional, cell-based. The conditions noted are these: A549, 48 h.
A further data set deals with DU-145. In words: Cytotoxicity against human DU145 cells assessed as reduction in cell viability measured after 48 hrs by SRB assay. The data set is classed as functional, cell-based. As to conditions: DU-145, 48 h.
In data set [4] the test system is HeLa. In words: Cell cycle arrest in human HeLa cells assessed as G2/M phase accumulation after 24 hrs by propidium iodide staining based flow cytometric analysis. The data set is classed as functional.
In data set [5] the test system is HeLa. In words: Cell cycle arrest in human HeLa cells assessed as G2/M phase accumulation at 5 uM after 24 hrs by propidium iodide staining based flow cytometric analysis (reference value: 29.18%). In kind it is functional.
A further data set deals with MDA-MB-231. In words: Cytotoxicity against human MDA-MB-231 cells assessed as reduction in cell viability measured after 48 hrs by SRB assay. The data set is classed as functional, cell-based. As to conditions: MDA-MB-231, 48 h.
The test system of another data set is IMR-32. Kind of data set: Cytotoxicity against human IMR32 cells assessed as reduction in cell viability measured after 48 hrs by SRB assay. The data set is classed as functional, cell-based. As to conditions: IMR-32, 48 h.
Data set [6] has as its target T1, Tubulin (Homo sapiens) (UniProt P68371+Q9H4B7+P0DPH7+P68366+Q13509+Q71U36+P04350+Q3ZCM7+P07437+P68363+Q9BQE3+Q6PEY2+Q13885+Q9BVA1+Q9BUF5). In words: Induction of tubulin polymerization in human HeLa cells assessed as chromosomal alignment on metaphase plate at 10 uM after 24 hrs by DAPI staining/confocal microscopy-based immunofluorescence analysis. The data set is classed as cell-based.

The target of data set [7] is T1, Tubulin (Homo sapiens). In words: Induction of tubulin polymerization in human HeLa cells assessed as increase in insoluble tubulin fraction after 24 hrs by Western blot analysis. The data set is classed as cell-based. A general note: A western blot detects proteins with antibodies after separation by electrophoresis.
Data set [8] concerns HeLa. Kind of data set: Cell cycle arrest in human HeLa cells assessed as G2/M phase accumulation after 24 hrs by propidium iodide staining based flow cytometric analysis (reference value: 29.18%). The data set is classed as functional.
The target in data set [9] is T1, Tubulin (Homo sapiens). In words: Induction of tubulin polymerization in human HeLa cells assessed as multiple spindle formation after 24 hrs by DAPI staining/confocal microscopy-based immunofluorescence analysis. The data set is classed as cell-based.
The species entered for data set [10] is Bos taurus. Kind of data set: Inhibition of bovine brain tubulin polymerization measured for 1 hr at 1 min interval by fluorescence assay relative to control.
The subject of the next data set is PANC-1. In words: Cytotoxicity against human PANC1 cells assessed as reduction in cell viability measured after 48 hrs by SRB assay. The data set is classed as functional, cell-based. As to conditions: PANC-1, 48 h.
A further data set concerns SiHa. Kind of data set: Cytotoxicity against human SiHa cells assessed as reduction in cell viability measured after 48 hrs by SRB assay. The data set is classed as functional, cell-based.
The nature of data set [11]: Selectivity index, ratio of IC50 for HEK293 cells to IC50 for human DU145 cells. The data set is classed as toxicity. The conditions noted are these: HEK293 cells versus DU145 cells, read-out: Ratio IC50.

The structures appear in SMILES notation. pIC50: −log10 of the molar value. The source made the active and inactive calls. The calls are words filed in the database; no cut-off is given here. A value given as a limit tells only on which side of the number the result lay.

Take `COc1cc2c(c(OC)c1OC)-c1c(cc3c(c1OC)OCO3)C[C@H](C)[C@@](C)(O)/C2=N/OCc1cn(-c2ccc([N+](=O)[O-])c(Cl)c2)nn1`: in the data set filed under Bos taurus [1], the fold change (FC) came to 1.25. For the same molecule, the negative-log IC50 (pIC50) with HEK293 was 4.30; in the data set with A549, 5.10; with DU-145 it was 4.89; in the data set with MDA-MB-231, 4.94; with IMR-32, 5.07. The Activity is 46.83% in the data set on HeLa [2]; 43.06% with HeLa [3]; “Dose-dependent effect” in the data set on HeLa [4]; 37.11% with HeLa [5]; “Dose-dependent effect” at Tubulin (Homo sapiens) [7]. Moreover, the outcome on Tubulin (Homo sapiens) [6] was Active.
In the case of `COC(=O)Nc1nc2cc(C(=O)c3cccs3)ccc2[nH]1` [NOCODAZOLE], the Activity with HeLa [8] was 91.7%.
`CC(=O)O[C@H]1C(=O)[C@@]2(C)[C@H]([C@H](OC(=O)c3ccccc3)[C@]3(O)C[C@H](OC(=O)[C@H](O)[C@@H](NC(=O)c4ccccc4)c4ccccc4)C(C)=C1C3(C)C)[C@]1(OC(C)=O)CO[C@@H]1C[C@@H]2O`: the outcome at Tubulin (Homo sapiens) [9] and at Tubulin (Homo sapiens) [7] was Active. Further, the fold change (FC) in the data set filed under Bos taurus [10] was found to be 2.68.
Regarding `COc1ccc(/C=C\c2cc(OC)c(OC)c(OC)c2)cc1O`, the fold change (FC) in the data set listed under Bos taurus [10] was found to be 0.15.
`COc1cc2c(c(OC)c1OC)-c1c(cc3c(c1OC)OCO3)C[C@H](C)[C@@](C)(O)/C2=N/OCc1cn(CC(=O)Nc2ccc(C)cc2)nn1`: the pIC50 in the data set with HEK293 is less than 4.00; in the data set with PANC-1 it was 4.15; with SiHa, 4.19; in the data set on A549 it was 4.07; with DU-145, 4.06; with MDA-MB-231, 4.14. In addition, the pIC50 in the data set with IMR-32 is 4.10. Moreover, the selectivity ratio in data set [11] stood at 1.15.

As a reminder, the pIC50 is the negative decadic logarithm of the IC50, by convention in mol/L.
